We go through three compounds from patent publication US12459921B2, “Isoindoline compound, preparation method, pharmaceutical composition and use thereof” (SHANGHAI INSTITUTE OF MATERIA MEDICA, CHINESE ACADEMY OF …, priority 2018, dated 2025).

Assay [1] relates to MM.1S cells. Kind of assay: Inhibitory effect on the proliferation of MM.1S, MTS cell viability test. It is filed as cell-based. As to conditions: Homo sapiens, MM1.S, 168 h, multiple myeloma MM.1S cells, 7 days incubation, read-out: Tumor cell inhibitory activity. An outline of the steps: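 Viability measured by MTS (OD490 minus OD690 background, 3-4 h) after a 7-day exposure of 20,000 MM.1S cells/well to 5-fold serially diluted compound, 0.2% DMSO final. Inhibition calculated relative to DMSO wells; IC50 curve-fitted, averaged over three repeats.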

Assay [2] relates to MV-4-11 cells. The assay is described as follows: Inhibitory effect on the proliferation of MV-4-11 cells, MTS cell viability test. The assay is classed as cell-based. As to conditions: Homo sapiens, MV4-11, 168 h, acute leukemia MV-4-11 cells, 7 days incubation, read-out: Tumor cell inhibitory activity. The method, then:
Method of tumor cell proliferation inhibition test: the inventors tested all the example compounds on hematologic tumor cells, multiple myeloma MMTs cell line and acute leukemia cell MV-4-11 cell line of some examples. The activity test method and results are as follows.
2. The Inhibitory Effect of Compounds on the Proliferation of MV-4-11 Cells, MTS Cell Viability Test: 1). Experimental Method:
MV-4-11 cells were cultured and collected with IMDM and 10% fetal bovine serum. The cell concentration was diluted according to 7 days, and 180 ul of cell suspension was added to each well of a 96-well cell plate to 2000 cells. 20 ul of DMSO with a final concentration of 0.2% was added to the control wells. The compound was diluted 5-fold from the 10 mM stock solution, and 20 ul was also added to the compound cell wells (the final concentration of DMSO was 0.2%). The cells were placed in a 37° C., 5% CO2 incubator and incubated for 7 days. After the reaction solution was prepared according to the MTS kit (Promega, G5430), 20 μL was added to each well, incubated in a 37° C., 5% CO2 incubator for 3-4 h. The 490 nm absorbance value was read with a microtiter plate, and the 690 nm absorbance value was used as the background value. OD490-OD690 was used as the final initial data. The formula for calculating the inhibition rate of the compound was: inhibition rate=(ODDMSO-ODcompound)/(ODDMSO-Oblank)×100%. The compound's proliferation inhibition IC50 was fitted by Graph Pad Prism 5.0. The experiment was repeated three times, and the average and standard deviation was calculated according to three parallel experiments each time.

As for `O=C1CCC(N2Cc3c(CCCCN4CCN(c5cccc6ccsc56)CC4)cccc3C2=O)C(=O)N1` (stereo not drawn) [Example 221, 3-(4-(4-(4-(benzothiophene-7-yl)piperazin-1-yl)butyl)-1-oxoisoindoline-2-yl)piperidine-2,6-dione], the results for the IC50 in assay [1] and in assay [2] were less than 100 nM and 600 nM, respectively.
For `N#CC1(c2cccc(Cl)c2)CCN(CCCCCc2cccc3c2CN(C2CCC(=O)NC2=O)C3=O)CC1` (stereo not drawn) [Example 51, 4-(3-chlorophenyl)-1-(5-(2-(2,6-dioxopiperidine-3-)-1-oxoisoindoline-4-)pentyl) piperidine-4-carbonitrile], the IC50 in assay [1] is less than 100 nM; in assay [2] it was 570 nM.
In the same order, the values of `CC(=O)N[C@@H](CCCc1cccc2c1CN(C1CCC(=O)NC1=O)C2=O)C(=O)Nc1ccccc1` (stereo partly drawn) [Example 164, (2S)-2-acetylamino-5-(2-(2,6-dioxopiperidine-3-)-1-oxoisoindoline-4-)-N-phenylpentanamide] are less than 100 nM and 250 nM.
